Activity calls are given as the source filed them. The rule behind the calls is not given here.
Columns and labels:
[1] = Half life in C57BL/6J mouse at 10 mg/kg, iv measured upto 24 hrs by LC-MS/MS analysis; type: ADME, organism-based; conditions: in vivo
[2] = test system: Mus musculus; test: Antisepsis effect in LPS-induced sepsis C57BL/6J mouse model assessed as prevention of lung injury at 10 mg/kg, ip measured after 7 days by hematoxylin and eosin staining based assay; type: functional, organism-based; conditions: time 7.0 day
[3] = test system: Mus musculus; test: Antisepsis effect in LPS-induced sepsis C57BL/6J mouse model assessed as decrease in serum TNFalpha level at 10 mg/kg, ip measured after 7 days by ELISA; type: functional, organism-based; conditions: time 7.0 day
[4] = Initial plasma concentration in C57BL/6J mouse at 10 mg/kg, iv measured upto 24 hrs by LC-MS/MS analysis; type: ADME, organism-based
[5] = test system: Mus musculus; test: Inhibition of noncanonical NF-kappaB signaling pathway LPS-induced sepsis C57BL/6J mouse model assessed as decrease in p52 protein level at 10 mg/kg, ip measured after 7 days by immunoblotting analysis; type: functional, organism-based; conditions: time 7.0 day
[6] = Metabolic stability in mouse liver microsomes assessed as intrinsic clearance at 1 uM measured upto 60 mins by LC-MS/MS analysis; type: ADME, Microsome; conditions: read-out: CLH
[7] = test system: Mus musculus; test: Antisepsis effect in LPS-induced sepsis C57BL/6J mouse model assessed as prevention of liver injury by measuring decrease in serum ALT level at 10 mg/kg, ip measured after 7 days by biochemical assay; type: functional, organism-based; conditions: time 7.0 day
[8] = test system: Mus musculus; test: Antisepsis effect in LPS-induced sepsis C57BL/6J mouse model assessed as prevention of liver injury by measuring decrease in serum AST level at 10 mg/kg, ip measured after 7 days by biochemical assay; type: functional, organism-based; conditions: time 7.0 day
[9] = test system: COS-7; test: Cytotoxicity against African green monkey COS-7 cells assessed as cell viability at 5 uM by CCK8 assay; type: toxicity, cell-based; conditions: chlorocebus aethiops, cos-7, 5 µM
[10] = test system: Mus musculus; test: Antisepsis effect in LPS-induced sepsis C57BL/6J mouse model assessed as protection by measuring mouse survival at 10 mg/kg, ip measured after 7 days relative to control; type: functional, organism-based; conditions: time 7.0 day
[11] = test system: Mus musculus; test: Antisepsis effect in LPS-induced sepsis C57BL/6J mouse model assessed as prevention of necrosis in liver tissue at 10 mg/kg, ip measured after 7 days by hematoxylin and eosin staining based assay; type: functional, organism-based; conditions: time 7.0 day
[12] = test system: Mus musculus; test: Antisepsis effect in LPS-induced sepsis C57BL/6J mouse model assessed as prevention of tubular injury at 10 mg/kg, ip measured after 7 days by hematoxylin and eosin staining based assay; type: functional, organism-based; conditions: time 7.0 day
[13] = test system: Mus musculus; test: Antisepsis effect in LPS-induced sepsis C57BL/6J mouse model assessed as protection by measuring mouse survival at 10 mg/kg, ip measured at 48 hrs relative to control; type: functional, organism-based
[14] = test system: RAW264.7; test: Anti-inflammatory activity in mouse RAW264.7 cells assessed as suppression of LPS/CD40-induced IL-1beta secretion at 5 uM pretreated for 2 hrs followed stimulated with LPS/CD40 for 22 hrs by ELISA; type: functional, cell-based; conditions: time 24.0 hrs
[15] = test system: Mus musculus; test: Antisepsis effect in LPS-induced sepsis C57BL/6J mouse model assessed as decrease in serum CXCL-12 level at 10 mg/kg, ip measured after 7 days by ELISA; type: functional, organism-based; conditions: time 7.0 day
[16] = test system: Mus musculus; test: Antisepsis effect in LPS-induced sepsis C57BL/6J mouse model assessed as prevention of kidney injury at 10 mg/kg, ip measured after 7 days by hematoxylin and eosin staining based assay; type: functional, organism-based; conditions: time 7.0 day
[17] = AUCinf in C57BL/6J mouse at 10 mg/kg, po measured upto 24 hrs by LC-MS/MS analysis; type: ADME, organism-based; conditions: in vivo
[18] = Half life in C57BL/6J mouse at 10 mg/kg, po measured upto 24 hrs by LC-MS/MS analysis; type: ADME, organism-based; conditions: in vivo
[19] = test system: Mus musculus; test: Antisepsis effect in LPS-induced sepsis C57BL/6J mouse model assessed as decrease in serum IL-1beta level at 10 mg/kg, ip measured after 7 days by ELISA; type: functional, organism-based; conditions: time 7.0 day
[20] = AUClast in C57BL/6J mouse at 10 mg/kg, iv measured upto 24 hrs by LC-MS/MS analysis; type: ADME, organism-based; conditions: in vivo
[21] = test system: RAW264.7; test: Cytotoxicity against mouse RAW264.7 cells assessed as cell viability at 5 uM by CCK8 assay; type: toxicity, cell-based; conditions: raw264.7, 5 µM
[22] = test system: Macrophage; test: Anti-inflammatory activity in mouse macrophages extracted from abdominal activity assessed as inhibition of LPS-induced nitric oxide production at 1 uM measured after 22 hrs by Griess reagent assay relative to control; type: functional, cell-based
[23] = target: Mitogen-activated protein kinase 8 (Homo sapiens, UniProt P45983); test: Inhibition of JNK1 (unknown origin) by ADP-Glo Kinase assay
[24] = test system: RAW264.7; test: Anti-inflammatory activity in mouse RAW264.7 cells assessed as suppression of LPS/CD40-induced IL-6 secretion at 5 uM pretreated for 2 hrs followed stimulated with LPS/CD40 for 22 hrs by ELISA; type: functional, cell-based; conditions: time 24.0 hrs
[25] = target: AMP-activated protein kinase (AMPK) alpha-1/beta-1/gamma-1 (Homo sapiens, UniProt P54619+Q13131+Q9Y478); test: Inhibition of AMPKalpha1/beta1/gamma1 (unknown origin) by ADP-Glo Kinase assay; type: protein-complex assay
[26] = Cmax in C57BL/6J mouse at 10 mg/kg, po measured upto 24 hrs by LC-MS/MS analysis; type: ADME, organism-based; conditions: in vivo
[27] = Metabolic stability in rat liver microsomes assessed as half life at 1 uM measured upto 60 mins by LC-MS/MS analysis; type: ADME, Microsome
[28] = Metabolic stability in mouse liver microsomes assessed as half life at 1 uM measured upto 60 mins by LC-MS/MS analysis; type: ADME, Microsome
[29] = test system: Mus musculus; test: Antisepsis effect in LPS-induced sepsis C57BL/6J mouse model assessed as decrease in serum IFN-gamma level at 10 mg/kg, ip measured after 7 days by ELISA; type: functional, organism-based; conditions: time 7.0 day
[30] = Clearance in C57BL/6J mouse at 10 mg/kg, iv measured upto 24 hrs by LC-MS/MS analysis; type: ADME, organism-based; conditions: in vivo
[31] = test system: RAW264.7; test: Cytotoxicity against mouse RAW264.7 cells assessed as cell viability at 1 uM by CCK8 assay; type: toxicity, cell-based; conditions: raw264.7, 1 µM
[32] = test system: Mus musculus; test: Antisepsis effect in LPS-induced sepsis C57BL/6J mouse model assessed as decrease in serum IL-6 level at 10 mg/kg, ip measured after 7 days by ELISA; type: functional, organism-based; conditions: time 7.0 day
[33] = AUCinf in C57BL/6J mouse at 10 mg/kg, iv measured upto 24 hrs by LC-MS/MS analysis; type: ADME, organism-based; conditions: in vivo
[34] = test system: RAW264.7; test: Anti-inflammatory activity in mouse RAW264.7 cells assessed as suppression of LPS/CD40-induced TNFalpha secretion at 5 uM pretreated for 2 hrs followed stimulated with LPS/CD40 for 22 hrs by ELISA; type: functional, cell-based; conditions: time 24.0 hrs
[35] = Metabolic stability in rat liver microsomes assessed as intrinsic clearance at 1 uM measured upto 60 mins by LC-MS/MS analysis; type: ADME, Microsome; conditions: read-out: CLH
[36] = test system: Mus musculus; test: Inhibition of noncanonical NF-kappaB signaling pathway LPS-induced sepsis C57BL/6J mouse model assessed as increase in p100 protein level at 10 mg/kg, ip measured after 7 days by immunoblotting analysis; type: functional, organism-based; conditions: time 7.0 day
[37] = test system: COS-7; test: Cytotoxicity against African green monkey COS-7 cells assessed as cell viability at 1 uM by CCK8 assay; type: toxicity, cell-based; conditions: chlorocebus aethiops, cos-7, 1 µM
[38] = test system: Mus musculus; test: Antisepsis effect in LPS-induced sepsis C57BL/6J mouse model assessed as prevention of infiltration of inflammatory cells at 10 mg/kg, ip measured after 7 days by immunohistochemistry staining of F4/80 imaging based assay; type: functional, organism-based; conditions: time 7.0 day
[39] = target: T1, Mitogen-activated protein kinase kinase kinase 14 (Homo sapiens, UniProt Q99558); test: Inhibition of NIK (unknown origin) expressed in COS-7 cells co-expressing NF-KappaB luciferase reporter assessed as suppression of luciferase reporter measured after 24 by beta-Gal activity assay; type: cell-based
[40] = AUClast in C57BL/6J mouse at 10 mg/kg, po measured upto 24 hrs by LC-MS/MS analysis; type: ADME, organism-based; conditions: in vivo
[41] = test system: Mus musculus; test: Antisepsis effect in LPS-induced sepsis C57BL/6J mouse model assessed as prevention of liver injury by measuring decrease in serum AKP level at 10 mg/kg, ip measured after 7 days by biochemical assay; type: functional, organism-based; conditions: time 7.0 day
[42] = Tmax in C57BL/6J mouse at 10 mg/kg, po measured upto 24 hrs by LC-MS/MS analysis; type: ADME, organism-based; conditions: in vivo
[43] = target: T1, Mitogen-activated protein kinase kinase kinase 14; test: Inhibition of NIK (unknown origin) incubated 30 to 60 mins by ADP-Glo Kinase

T1 sequence (Q99558 whole entry): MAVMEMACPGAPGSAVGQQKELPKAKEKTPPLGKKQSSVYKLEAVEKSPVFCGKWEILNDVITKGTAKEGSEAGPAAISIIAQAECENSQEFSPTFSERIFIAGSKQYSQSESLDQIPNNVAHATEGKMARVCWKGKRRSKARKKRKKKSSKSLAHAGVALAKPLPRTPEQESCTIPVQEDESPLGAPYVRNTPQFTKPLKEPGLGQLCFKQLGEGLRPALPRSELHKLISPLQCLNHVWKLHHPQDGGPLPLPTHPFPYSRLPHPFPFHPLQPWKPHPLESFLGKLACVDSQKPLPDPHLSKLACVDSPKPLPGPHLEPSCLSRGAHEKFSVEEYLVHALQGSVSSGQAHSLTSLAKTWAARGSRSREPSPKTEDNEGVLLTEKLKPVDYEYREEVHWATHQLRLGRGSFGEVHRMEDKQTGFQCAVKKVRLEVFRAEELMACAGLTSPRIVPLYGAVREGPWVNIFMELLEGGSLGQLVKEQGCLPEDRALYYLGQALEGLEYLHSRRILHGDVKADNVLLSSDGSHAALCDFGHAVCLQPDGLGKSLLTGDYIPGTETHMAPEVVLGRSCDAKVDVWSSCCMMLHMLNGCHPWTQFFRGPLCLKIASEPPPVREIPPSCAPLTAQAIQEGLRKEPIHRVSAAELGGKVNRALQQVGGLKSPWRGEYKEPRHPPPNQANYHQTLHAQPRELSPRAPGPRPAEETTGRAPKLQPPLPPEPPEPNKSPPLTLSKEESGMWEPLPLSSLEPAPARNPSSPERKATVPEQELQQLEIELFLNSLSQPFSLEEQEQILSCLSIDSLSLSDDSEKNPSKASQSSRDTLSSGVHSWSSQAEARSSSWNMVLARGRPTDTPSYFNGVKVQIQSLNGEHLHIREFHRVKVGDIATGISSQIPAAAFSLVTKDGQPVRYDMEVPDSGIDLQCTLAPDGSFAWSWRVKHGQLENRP
Sequence of AMP-activated protein kinase (AMPK) alpha-1/beta-1/gamma-1 (P54619 whole entry): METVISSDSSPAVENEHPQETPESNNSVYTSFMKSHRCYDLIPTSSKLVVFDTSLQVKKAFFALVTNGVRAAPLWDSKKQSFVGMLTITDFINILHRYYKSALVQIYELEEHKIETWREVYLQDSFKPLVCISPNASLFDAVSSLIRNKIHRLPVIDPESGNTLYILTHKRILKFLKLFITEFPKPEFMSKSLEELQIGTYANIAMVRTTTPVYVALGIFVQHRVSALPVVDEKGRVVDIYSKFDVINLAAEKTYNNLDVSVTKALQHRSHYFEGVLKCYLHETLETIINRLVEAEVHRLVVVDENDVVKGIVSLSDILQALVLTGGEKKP
Sequence of AMP-activated protein kinase (AMPK) alpha-1/beta-1/gamma-1 (Q9Y478 whole entry): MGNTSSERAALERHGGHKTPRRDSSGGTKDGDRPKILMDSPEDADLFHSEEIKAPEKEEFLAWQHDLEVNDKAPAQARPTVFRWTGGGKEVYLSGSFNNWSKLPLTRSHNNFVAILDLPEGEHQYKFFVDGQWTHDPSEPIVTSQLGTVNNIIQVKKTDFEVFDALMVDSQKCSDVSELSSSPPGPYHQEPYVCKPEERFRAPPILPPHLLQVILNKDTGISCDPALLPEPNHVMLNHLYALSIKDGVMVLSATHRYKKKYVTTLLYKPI
Sequence of AMP-activated protein kinase (AMPK) alpha-1/beta-1/gamma-1 (Q13131 whole entry): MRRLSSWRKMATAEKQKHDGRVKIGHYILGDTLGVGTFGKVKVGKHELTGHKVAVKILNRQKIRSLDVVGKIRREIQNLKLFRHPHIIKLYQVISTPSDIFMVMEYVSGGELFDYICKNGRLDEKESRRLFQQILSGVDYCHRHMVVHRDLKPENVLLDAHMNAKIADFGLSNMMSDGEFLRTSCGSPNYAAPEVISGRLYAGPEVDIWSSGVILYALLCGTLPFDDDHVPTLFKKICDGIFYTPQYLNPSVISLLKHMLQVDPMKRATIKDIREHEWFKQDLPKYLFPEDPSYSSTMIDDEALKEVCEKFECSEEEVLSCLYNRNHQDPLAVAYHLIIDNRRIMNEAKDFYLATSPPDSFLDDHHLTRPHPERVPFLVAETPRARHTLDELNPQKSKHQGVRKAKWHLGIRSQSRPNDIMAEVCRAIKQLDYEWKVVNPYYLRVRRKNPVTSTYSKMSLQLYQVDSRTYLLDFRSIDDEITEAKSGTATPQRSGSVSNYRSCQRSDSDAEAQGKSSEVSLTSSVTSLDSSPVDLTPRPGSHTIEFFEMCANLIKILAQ
Sequence of Mitogen-activated protein kinase 8 (P45983 whole entry): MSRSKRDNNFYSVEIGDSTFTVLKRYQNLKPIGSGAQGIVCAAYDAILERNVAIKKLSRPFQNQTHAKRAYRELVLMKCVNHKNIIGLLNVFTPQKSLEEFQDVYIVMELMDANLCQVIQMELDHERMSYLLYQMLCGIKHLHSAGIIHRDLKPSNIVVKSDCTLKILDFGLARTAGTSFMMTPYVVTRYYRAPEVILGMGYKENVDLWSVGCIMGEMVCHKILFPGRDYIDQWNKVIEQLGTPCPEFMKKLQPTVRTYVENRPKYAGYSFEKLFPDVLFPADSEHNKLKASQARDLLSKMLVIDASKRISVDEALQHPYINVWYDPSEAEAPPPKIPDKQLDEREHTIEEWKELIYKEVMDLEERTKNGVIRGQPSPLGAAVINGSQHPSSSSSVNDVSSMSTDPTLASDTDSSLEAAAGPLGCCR

## COc1cc(Nc2nccc(N3CCCn4nc(C#C[C@@](C)(O)c5nccs5)cc43)n2)cc(OC)c1
[1]
  half-life: 44.5 min
[2]
  Activity: Active
[3]
  Activity: Active
[4]
  C0 at 24 h: 5060 ng/mL
[5]
  Activity: Active
[6]
  microsomal CLint at 1 µM: 71 µL/min/mg
[7]
  Activity: Active
[8]
  Activity: Active
[9]
  Activity: Non-Toxic
[10]
  Activity: Active
[11]
  Activity: Active
[12]
  Activity: Active
[13]
  Activity: Active
[14]
  Activity: Active
[15]
  Activity: Active
[16]
  Activity: Active
[17]
  AUC(0-inf): 2550 ng·h/mL
[18]
  half-life: 136 min
[19]
  Activity: Active
[20]
  AUC(0-t) at 24 h: 3020 ng·h/mL
[21]
  Activity: Non-Toxic
[22]
  IC50: 78.1 µM
[23]
  IC50: 541 µM
[24]
  Activity: Active
[25]
  IC50: 288 µM
[26]
  Cmax: 1280 ng/mL
[27]
  half-life at 1 µM: 25.9 min
[28]
  half-life at 1 µM: 19.5 min
[29]
  Activity: Active
[30]
  clearance: 56.2 mL/min/kg
[31]
  Activity: Non-Toxic
[32]
  Activity: Active
[33]
  AUC(0-inf): 3020 ng·h/mL
[34]
  Activity: Active
[35]
  microsomal CLint at 1 µM: 53.6 µL/min/mg
[36]
  Activity: Active
[37]
  Activity: Non-Toxic
[38]
  Activity: Active
[39]
  IC50: 1190 nM
[40]
  AUC(0-t) at 24 h: 2520 ng·h/mL
[41]
  Activity: Active
[42]
  Tmax: 30 min
[43]
  IC50: 1.27 nM

Source: ChEMBL document CHEMBL5518244, “Design, Synthesis, and Biological Evaluation of a Novel NIK Inhibitor with Anti-Inflammatory and Hepatoprotective Effects for Sepsis Treatment” (J Med Chem, 2024)
